Test results as given in ChEMBL document CHEMBL5338806, “Rationally Designed Nonapeptides with Great Skin Photoprotective Effect through Producing Type 1 Collagen and Blocking the mTOR Pathway” (J Med Chem, 2023).
Active and inactive are the calls of the source. No cut-off for these calls is given here. Where a SMILES comes first, the peptide text is derived from it.

How the values were obtained:
[1] = Antioxidant activity assessed as DPPH radical scavenging activity by measuring eradication rate at 80 ug/mL incubated for 30 mins by absorbance based assay relative to control; type: functional; details: dose 80.0 µg/ml
[2] = Antioxidant activity assessed as ROS scavenging activity; type: functional
HEK293 = assay: Activation of COL1a2 transcriptional activity in HEK293 cells by dual-luciferase reporter assay; type: functional, cell-based; details: Homo sapiens
Mus musculus [3] = assay: Protection against UV radiation-stress induced skin damage in Kunming mouse model assessed as repair of broken skin at 20 ug/ml administered topically and measured every 2 days for 10 days; type: functional, organism-based; details: dose 20.0 µg/ml, route top, time 10.0 day
HFF-1 [4] = assay: Inhibition of H2O2-stimulated IL-6 production in SIPS HFF-1 cell model pre-incubated with compound for 12 hrs followed by H2O2 stimulation for 60 mins by ELISA method; type: functional, cell-based; details: Homo sapiens, dose 5-25 µg/ml, time 13.0 hrs
HFF-1 [5] = assay: Inhibition of H2O2-stimulated TNF-alpha production in SIPS HFF-1 cell model pre-incubated with compound for 12 hrs followed by H2O2 stimulation for 60 mins by ELISA method; type: functional, cell-based; details: Homo sapiens, dose 5-25 µg/ml, time 13.0 hrs
HFF-1 [6] = assay: Inhibition of H2O2-stimulated IL-1beta production in SIPS HFF-1 cell model pre-incubated with compound for 12 hrs followed by H2O2 stimulation for 60 mins by ELISA method; type: functional, cell-based; details: Homo sapiens, dose 5-25 µg/ml, time 13.0 hrs
HFF-1 [7] = assay: Cytotoxicity against HFF-1 cells upto 160 ug/mL incubated for 24 hrs by MTT assay; type: toxicity, cell-based; details: human, hff-1, 24 h, up to 160 µg/mL
[8] = Toxicity in Wistar rat mast cell assessed as cell degranulation by measuring beta-hexosaminidase release at 10 ug/mL incubated for 15 mins by fluorescence based analysis (reference value: 20.13 +/- 1.40 %); details: 0.25 h, at 10 µg/mL
[9] = Toxicity in Wistar rat mast cell assessed as cell degranulation by measuring beta-hexosaminidase release at 40 ug/mL incubated for 15 mins by fluorescence based analysis (reference value: 20.13 +/- 1.40 %); details: 0.25 h, at 40 µg/mL
[10] = Toxicity in Wistar rat mast cell assessed as cell degranulation by measuring beta-hexosaminidase release at 160 ug/mL incubated for 15 mins by fluorescence based analysis (reference value: 20.13 +/- 1.40 %); details: 0.25 h, at 160 µg/mL
[11] = Toxicity in Wistar rat mast cell assessed as cell degranulation by measuring increase in beta-hexosaminidase release at 10 ug/mL incubated for 15 mins by fluorescence based analysis (reference value: 0 +/- 1.40 %); details: 0.25 h, at 10 µg/mL
[12] = Toxicity in Wistar rat mast cell assessed as cell degranulation by measuring increase in beta-hexosaminidase release at 40 ug/mL incubated for 15 mins by fluorescence based analysis (reference value: 0 +/- 1.40 %); details: 0.25 h, at 40 µg/mL
[13] = Toxicity in Wistar rat mast cell assessed as cell degranulation by measuring increase in beta-hexosaminidase release at 160 ug/mL incubated for 15 mins by fluorescence based analysis (reference value: 0 +/- 1.40 %); details: 0.25 h, at 160 µg/mL
[14] = Antioxidant activity assessed as ABTS radical scavenging activity in presence of 50 mM NaCl; type: functional
[15] = Antioxidant activity assessed as ABTS radical scavenging activity in presence of 400 mM NaCl; type: functional
[16] = Thermal stability of compound by measuring retention of ABTS radical scavenging activity at 2 mg/mL at 37 degC for 96 hrs; type: physicochemical
[17] = Stability of compound in human serum assessed as protease mediated degradation at 2 mg/mL incubated for 24 hrs by RP-HPLC analysis; type: ADME, cell-free
HFF-1 [18] = assay: Protection against UV-A/H2O2-stress induced premature senescence HFF-1 cell model assessed as cell migration by measuring cellular repair activity at 10 ug/mL upto 24 hrs by inverted microscopic based cell scratch assay; type: functional; details: Homo sapiens, dose 10.0 µg/ml
HFF-1 [19] = assay: Induction of HFF-1 cell migration at 10 ug/mL measured for 2 to 8 hrs by transwell migration assay; type: functional, cell-based; details: Homo sapiens, dose 10.0 µg/ml, time 2-8 hrs
HFF-1 [20] = assay: Protection against H2O2-induced SIPS HFF-1 cell model assessed as reduction in cell senescence at 5 to 25 ug/mL pretreated for 24 hrs followed by irritation with H2O2 for 2 hrs by SA-beta-Gal staining assay; type: functional, cell-based; details: Homo sapiens, dose 5-25 µg/ml, time 26.0 hrs
HFF-1 [21] = assay: Inhibition of intracellular ROS level in UV-A-induced SIPS HFF-1 cell model assessed as reduction in ROS level pretreated with compound for 24 hrs followed by 10.8 J/cm^2 UV-A irritation incubated for 30 mins under dark condition by DCFH-DA staining based flow cytometry analysis; type: functional; details: Homo sapiens, dose 5-50 µg/ml, time 24.5 hrs
HFF-1 [22] = assay: Restoration of H2O2-induced mitochondrial membrane potential damage in SIPS HFF-1 cell model at 5 to 25 ug/mL incubated for 20 mins by JC-1 staining based fluorescence microscopic analysis; type: functional; details: Homo sapiens, dose 5-25 µg/ml
HFF-1 [23] = assay: Antioxidant activity against UV-A-induced SIPS HFF-1 cell model assessed as recovery of SOD level at 5 to 25 ug/mL pretreated with compound followed by 10.8 J/cm^2 UV-A irradiation; type: functional, cell-based; details: Homo sapiens, dose 5-25 µg/ml
HFF-1 [24] = assay: Antioxidant activity against UV-A-induced SIPS HFF-1 cell model assessed as recovery of CAT level at 5 to 25 ug/mL pretreated with compound followed by 10.8 J/cm^2 UV-A irradiation; type: functional, cell-based; details: Homo sapiens, dose 5-25 µg/ml
HFF-1 [25] = assay: Downregulation of MMP-1 expression in UV-A-induced SIPS HFF-1 cell model pretreated with compound for 24 hrs followed by 10.8 J/cm^2 UV-A irradiation by Western blot analysis; type: functional, cell-based; details: Homo sapiens, dose 5-25 µg/ml
HFF-1 [26] = assay: Upregulation of COL-1 expression in UV-A-induced SIPS HFF-1 cell model pretreated with compound for 24 hrs followed by 10.8 J/cm^2 UV-A irradiation by Western blot analysis; type: functional, cell-based; details: Homo sapiens, dose 5-25 µg/ml
[27] = biological target: Nuclear factor NF-kappa-B complex (Homo sapiens) (UniProt Q00653+P19838+Q04206); assay: Inhibition of NF-kappaB activation in HFF-1 cells assessed as suppression of UV-A-induced IkappaBalpha degradation at 5 to 25 ug/mL pretreated with compound for 24 hrs followed by 10.8 J/cm^2 UV-A irradiation by Western blot analysis; type: cell-based; details: dose 5-25 µg/ml
HFF-1 [28] = assay: Inhibition of H2O2-induced AKT activation in HFF-1 cells assessed as downregulation of mTOR phosphorylation at 5 to 25 ug/mL pretreated with compound for 24 hrs followed by H2O2 exposure for 2 hrs by Western blot analysis; type: cell-based; details: Homo sapiens, dose 5-25 µg/ml, time 26.0 hrs
HFF-1 [29] = assay: Inhibition of H2O2-induced AKT phosphorylation in HFF-1 cells at 5 to 25 ug/mL pretreated with compound for 24 hrs followed by H2O2 exposure for 2 hrs by Western blot analysis; type: cell-based; details: Homo sapiens, dose 5-25 µg/ml, time 26.0 hrs
[30] = biological target: Ribosomal protein S6 kinase (Homo sapiens) (UniProt P51812+Q9UBS0+O75676+Q15349+O75582+P23443+Q9UK32+Q15418); assay: Inhibition of H2O2-induced S6K phosphorylation in HFF-1 cells at 5 to 25 ug/mL pretreated with compound for 24 hrs followed by H2O2 exposure for 2 hrs by Western blot analysis; type: cell-based; details: dose 5-25 µg/ml, time 26.0 hrs
HFF-1 [31] = assay: Induction of autophagy in H2O2-induced SIPS HFF-1 cell model assessed as ratio of LC3BII/LC3BI levels at 5 to 25 ug/mL pretreated with compound for 24 hrs followed by H2O2 exposure for 2 hrs by Western blot analysis; type: functional, cell-based; details: Homo sapiens, dose 5-25 µg/ml, time 26.0 hrs
HFF-1 [32] = assay: Induction of autophagy in H2O2-induced SIPS HFF-1 cell model assessed as p62 expression at 5 to 25 ug/mL pretreated with compound for 24 hrs followed by H2O2 exposure for 2 hrs by Western blot analysis; type: functional, cell-based; details: Homo sapiens, dose 5-25 µg/ml, time 26.0 hrs
HFF-1 [33] = assay: Induction of autophagy in H2O2-induced SIPS HFF-1 cell model assessed as beclin-1 expression at 5 to 25 ug/mL pretreated with compound for 24 hrs followed by H2O2 exposure for 2 hrs by Western blot analysis; type: functional, cell-based; details: Homo sapiens, dose 5-25 µg/ml, time 26.0 hrs
HFF-1 [34] = assay: Induction of autophagy in H2O2-induced SIPS HFF-1 cell model assessed as phosphorylated AMPK expression at 5 to 25 ug/mL pretreated with compound for 24 hrs followed by H2O2 exposure for 2 hrs by Western blot analysis; type: functional, cell-based; details: Homo sapiens, dose 5-25 µg/ml, time 26.0 hrs
Mus musculus [35] = assay: In vivo anti-skin aging activity against UV-induced SIPS Kunming mouse model assessed as prevention of wrinkle and erythema formation at 100 ug/ml administered topically and measured for 10 weeks in presence of propylene glycol by macroscopic analysis; type: functional, organism-based; details: dose 100.0 µg/ml, route top
Mus musculus [36] = assay: In vivo anti-skin aging activity against UV-induced SIPS Kunming mouse model assessed as upregulation of skin elasticity at 100 ug/ml administered topically and measured for 10 weeks in presence of propylene glycol; type: functional, organism-based; details: dose 100.0 µg/ml, route top
Mus musculus [37] = assay: In vivo anti-skin aging activity against UV-induced SIPS Kunming mouse model assessed as increase in Skin-fold thickness of dorsal skin at 100 ug/ml administered topically and measured for 10 weeks in presence of propylene glycol by caliper method; type: functional, organism-based; details: dose 100.0 µg/ml, route top
Mus musculus [38] = assay: In vivo anti-skin aging activity against UV-induced SIPS Kunming mouse model assessed as repair of wrinkled skin at 100 ug/ml administered topically for 5 weeks in presence of propylene glycol by macroscopic analysis; type: functional, organism-based; details: dose 100.0 µg/ml, route top
Mus musculus [39] = assay: In vivo anti-skin aging activity against UV-induced SIPS Kunming mouse model assessed as restoration of skin elasticity at 100 ug/ml administered topically for 5 weeks in presence of propylene glycol; type: functional, organism-based; details: dose 100.0 µg/ml, route top
Mus musculus [40] = assay: In vivo anti-skin aging activity against UV-induced SIPS Kunming mouse model assessed as restoration of dorsal skin thickness at 100 ug/ml administered topically for 5 weeks in presence of propylene glycol by caliper method; type: functional, organism-based; details: dose 100.0 µg/ml, route top
Erythrocyte = assay: Hemolytic activity in human erythrocytes assessed as release of hemoglobin at 10 to 160 ug/ml; type: toxicity, cell-based; details: dose 10-160 µg/ml

Nuclear factor NF-kappa-B complex (Homo sapiens), sequence (P19838 whole entry, looked up): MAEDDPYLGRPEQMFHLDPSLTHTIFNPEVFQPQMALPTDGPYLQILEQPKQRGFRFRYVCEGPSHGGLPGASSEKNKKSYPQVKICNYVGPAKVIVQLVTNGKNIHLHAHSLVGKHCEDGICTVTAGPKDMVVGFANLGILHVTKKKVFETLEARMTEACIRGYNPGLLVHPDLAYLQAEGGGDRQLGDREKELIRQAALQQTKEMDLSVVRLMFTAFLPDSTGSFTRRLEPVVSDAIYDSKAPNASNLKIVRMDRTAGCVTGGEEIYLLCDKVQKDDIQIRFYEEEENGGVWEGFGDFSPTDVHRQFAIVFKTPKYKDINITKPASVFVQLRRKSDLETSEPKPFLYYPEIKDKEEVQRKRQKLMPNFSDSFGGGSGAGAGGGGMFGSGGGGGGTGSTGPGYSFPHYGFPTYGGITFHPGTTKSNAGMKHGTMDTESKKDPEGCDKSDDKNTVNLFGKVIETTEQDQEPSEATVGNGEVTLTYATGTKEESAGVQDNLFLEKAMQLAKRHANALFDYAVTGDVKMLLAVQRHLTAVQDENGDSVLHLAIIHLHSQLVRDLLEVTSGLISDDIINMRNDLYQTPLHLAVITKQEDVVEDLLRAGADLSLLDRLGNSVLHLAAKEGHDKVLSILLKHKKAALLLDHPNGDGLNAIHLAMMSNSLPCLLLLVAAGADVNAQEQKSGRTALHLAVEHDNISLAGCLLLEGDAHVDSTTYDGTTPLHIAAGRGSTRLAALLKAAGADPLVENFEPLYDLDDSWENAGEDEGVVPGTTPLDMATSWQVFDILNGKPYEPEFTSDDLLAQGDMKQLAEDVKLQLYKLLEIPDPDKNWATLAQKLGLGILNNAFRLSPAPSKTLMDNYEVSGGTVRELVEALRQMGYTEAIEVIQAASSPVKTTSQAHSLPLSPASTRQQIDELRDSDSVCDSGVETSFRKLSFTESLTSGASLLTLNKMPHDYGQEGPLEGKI
Nuclear factor NF-kappa-B complex (Homo sapiens), sequence (Q00653 whole entry, looked up): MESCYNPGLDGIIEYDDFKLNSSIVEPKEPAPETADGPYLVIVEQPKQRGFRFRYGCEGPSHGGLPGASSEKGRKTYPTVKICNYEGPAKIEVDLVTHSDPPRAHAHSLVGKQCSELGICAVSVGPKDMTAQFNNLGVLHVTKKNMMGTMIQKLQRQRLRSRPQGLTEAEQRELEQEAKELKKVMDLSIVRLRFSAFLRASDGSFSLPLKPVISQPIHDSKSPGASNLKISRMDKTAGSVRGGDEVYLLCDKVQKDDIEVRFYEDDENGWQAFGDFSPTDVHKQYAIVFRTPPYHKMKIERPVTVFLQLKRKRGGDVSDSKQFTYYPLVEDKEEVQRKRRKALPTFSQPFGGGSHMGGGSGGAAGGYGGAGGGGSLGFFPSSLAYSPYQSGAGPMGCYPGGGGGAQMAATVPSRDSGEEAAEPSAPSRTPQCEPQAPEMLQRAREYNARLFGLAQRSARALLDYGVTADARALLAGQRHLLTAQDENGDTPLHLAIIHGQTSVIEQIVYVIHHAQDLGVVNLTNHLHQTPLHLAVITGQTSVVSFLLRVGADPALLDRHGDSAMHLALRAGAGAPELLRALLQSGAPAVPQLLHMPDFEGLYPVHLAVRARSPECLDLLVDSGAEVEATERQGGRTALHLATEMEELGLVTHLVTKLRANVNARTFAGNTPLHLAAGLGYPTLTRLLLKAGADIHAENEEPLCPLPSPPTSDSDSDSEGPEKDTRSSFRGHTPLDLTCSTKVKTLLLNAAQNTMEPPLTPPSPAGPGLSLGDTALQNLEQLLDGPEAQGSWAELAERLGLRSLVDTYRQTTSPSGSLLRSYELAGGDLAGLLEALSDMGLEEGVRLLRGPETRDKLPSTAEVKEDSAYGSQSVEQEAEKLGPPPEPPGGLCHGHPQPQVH
Nuclear factor NF-kappa-B complex (Homo sapiens), sequence (Q04206 whole entry, looked up): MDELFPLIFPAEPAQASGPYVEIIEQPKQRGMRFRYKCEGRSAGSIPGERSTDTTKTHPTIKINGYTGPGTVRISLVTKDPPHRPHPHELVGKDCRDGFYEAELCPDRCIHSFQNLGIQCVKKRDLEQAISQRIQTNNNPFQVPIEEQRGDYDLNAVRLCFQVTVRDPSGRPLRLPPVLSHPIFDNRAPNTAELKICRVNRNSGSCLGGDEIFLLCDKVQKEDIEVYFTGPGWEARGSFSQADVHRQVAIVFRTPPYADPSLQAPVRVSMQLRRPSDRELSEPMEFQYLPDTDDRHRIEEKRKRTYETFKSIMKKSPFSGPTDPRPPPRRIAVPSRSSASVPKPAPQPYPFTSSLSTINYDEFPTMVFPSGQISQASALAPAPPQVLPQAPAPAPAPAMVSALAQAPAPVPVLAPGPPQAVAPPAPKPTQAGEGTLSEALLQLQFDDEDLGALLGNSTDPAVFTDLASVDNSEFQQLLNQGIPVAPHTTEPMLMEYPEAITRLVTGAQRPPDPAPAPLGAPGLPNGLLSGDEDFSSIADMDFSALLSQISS

CC(C)[C@H](N)C(=O)N[C@H](C(=O)N[C@@H](CCCCN)C(=O)N[C@@H](CS)C(=O)N1CCC[C@H]1C(=O)N[C@@H](CCCCN)C(=O)O)C(C)C (H-VVKCPK-OH)
Activity [1]: 85.4% | Activity [2]: Active | Activity (HEK293): Active | Activity (Mus musculus [3]): Active

CC(C)C[C@H](NC(=O)[C@H](Cc1c[nH]c2ccccc12)NC(=O)[C@@H]1CCCN1C(=O)[C@@H]1CCCN1C(=O)[C@H](CC(C)C)NC(=O)[C@@H](N)CC(C)C)C(=O)N[C@@H](CCCNC(=N)N)C(=O)N1CCC[C@H]1C(=O)N[C@@H](CCCCN)C(=O)N[C@@H](CS)C(=O)N[C@@H](CO)C(=O)O (H-LLPPWLRPKCS-OH)
Activity (HEK293): Active

CC(C)C[C@H](NC(=O)[C@H](CCCCN)NC(=O)[C@@H]1CCCN1C(=O)[C@H](CC(C)C)NC(=O)[C@@H](N)C(C)C)C(=O)N[C@@H](CCC(=O)O)C(=O)N[C@@H](CS)C(=O)N[C@H](C(=O)N[C@@H](Cc1c[nH]c2ccccc12)C(=O)O)C(C)C (H-VLPKLECVW-OH)
Activity (HEK293): Active

CC(C)[C@H](N)C(=O)N[C@H](C(=O)N1CCC[C@H]1C(=O)N[C@H](C(=O)N[C@H](C(=O)N[C@H](C(=O)N[C@@H](CS)C(=O)N1CCC[C@H]1C(=O)N[C@@H](CCCCN)C(=O)O)C(C)C)C(C)C)[C@@H](C)O)C(C)C (H-VVPTVVCPK-OH)
inhibition (HFF-1 [4]): Dose-Dependent Effect | inhibition (HFF-1 [5]): Dose-Dependent Effect | inhibition (HFF-1 [6]): Dose-Dependent Effect | Activity [2]: Active | Activity (HFF-1 [7]): 5.14% | Activity (HEK293): Active | Activity (Mus musculus [3]): Active | Activity [8]: 21.4% | Activity [9]: 23.14% | Activity [10]: 26.03% | Activity [11]: 1.27% | Activity [12]: 3.01% | Activity [13]: 5.9% | Activity [14]: Active | Activity [15]: Active | Activity [16]: Active | Stability [17]: Stable | Activity (HFF-1 [18]): Active | Activity (HFF-1 [19]): Active | Activity (HFF-1 [20]): Active | inhibition (HFF-1 [21]): Dose-Dependent Effect | Activity (HFF-1 [22]): Active | Activity (HFF-1 [23]): Active | Activity (HFF-1 [24]): Active | Activity (HFF-1 [25]): Dose-Dependent Effect | Activity (HFF-1 [26]): Dose-Dependent Effect | Activity [27]: Active | inhibition (HFF-1 [28]): Active | inhibition (HFF-1 [29]): Active | inhibition [30]: Active | Activity (HFF-1 [31]): Active | Activity (HFF-1 [32]): Active | Activity (HFF-1 [33]): Active | Activity (HFF-1 [34]): Active | Activity (Mus musculus [35]): Active | Activity (Mus musculus [36]): Active | Activity (Mus musculus [37]): Active | Activity (Mus musculus [38]): Active | Activity (Mus musculus [39]): Active | Activity (Mus musculus [40]): Active | Activity (Erythrocyte): Non-Toxic
